Laboratory results as given in PubChem BioAssay (NCI).
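Cells were grown in 96-well plates and exposed to each compound for 48 hours at five concentrations; endpoints were interpolated linearly between bracketing concentrations, or set to the highest concentration if not reached. TGI: total growth inhibition.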

What was measured:
Experiment in all cases: NCI tumour cell line growth inhibition, 48 h
DLD-1 colon = tested on: DLD-1 colon
DMS 273 small cell lung = tested on: DMS 273 small cell lung
HOP-18 NSCLC = tested on: HOP-18 NSCLC
RXF-631 renal = tested on: RXF-631 renal
XF 498 CNS = tested on: XF 498 CNS
HS 578T breast = tested on: HS 578T breast
MDA-MB-435 = tested on: MDA-MB-435
P388 leukemia = tested on: P388 leukemia
SN12K1 renal = tested on: SN12K1 renal
P388/ADR leukemia = tested on: P388/ADR leukemia
MDA-N = tested on: MDA-N
MCF7 breast = tested on: MCF7 breast

| Structure (SMILES) | TGI (DLD-1 colon) [µM] | TGI (DMS 273 small cell lung) [µM] | TGI (HOP-18 NSCLC) [µM] | TGI (RXF-631 renal) [µM] | TGI (XF 498 CNS) [µM] | other results |
| --- | --- | --- | --- | --- | --- | --- |
| Cc1c(C(=O)/C=C/c2ccccc2[N+](=O)[O-])[n+](=O)c2ccccc2n1[O-] | 17.9 | 16.8 | 28.7 | 23.9 | – | – |
| CCOC(=O)C1(Cc2ccc3ccccc3c2)CCCCC(=O)N1 (stereo not drawn) | > 100 | 36.9 | > 100 | – | > 100 | – |
| O=S1CSSC1 | 43.1 | 25.1 | > 100 | 29.8 | 50.1 | – |
| C=C1C(=O)C23C(O)C1CC[C@H]2C12CCCC(C)(COC(C)=O)[C@H]1[C@H](O)[C@]3(O)OC2 (stereo partly drawn) | 1.7 | 4.22 | 2.54 | – | 2.71 | TGI (HS 578T breast): 9.99 µM |
| COC(=O)C1C(=O)N(CCc2c[nH]c3ccccc23)C[C@@H]2CCC(=O)C[C@H]12 (stereo partly drawn) | > 100 | > 100 | – | > 100 | > 100 | – |
| Cc1ccc2oc(=O)c(-c3ccccc3)nc2c1 | > 100 | 37.6 | 84.4 | – | > 100 | – |
| Cc1ccccc1/C=C/C(=O)c1ccccc1 | 54.9 | 61.2 | – | 42.5 | 30.8 | – |
| CCCCCCC(C)CCCCCCCCCCC(=O)O (stereo not drawn) | > 100 | > 100 | > 100 | > 100 | > 100 | – |
| COc1ccc(C2Oc3c(c(O)cc4c3[C@H](c3ccc(O)cc3O)[C@H](O)C(c3ccc(O)c(O)c3)O4)C[C@@H]2O)cc1O (stereo partly drawn) | > 100 | > 100 | > 100 | – | – | – |
| Cc1ccc(C)c(N2C(=O)C(=O)C(c3nc4ccccc4s3)C(=Nc3cccc4c(=O)[nH][nH]c(=O)c34)C2=O)c1 (stereo not drawn) | > 100 | > 100 | > 100 | > 100 | – | – |
| C[C@]12C/C(=C/O)C(=O)C(O)=C1CC[C@@H]1C2CC[C@@]2(C)C1CC[C@@H]2O (stereo partly drawn) | – | 51.1 | > 100 | 48.8 | 33 | – |
| Cc1c2ccncc2c(C)c2c1[nH]c1ccc(O)c(OCC(F)(F)F)c12 | 18.2 | 4.87 | – | – | 22.9 | – |
| Cn1c(=O)nc2n(-c3ccc(Cl)c(C(F)(F)F)c3)c3ccccc3nc-2c1=O | > 100 | > 100 | > 100 | – | > 78.1 | – |
| O=C(CC1(O)C(=O)Nc2c(Cl)ccc(Cl)c21)c1ccc(Cl)cc1Cl (stereo not drawn) | > 100 | 37.8 | > 100 | – | 33.9 | – |
| CC(=O)n1c(=O)c2cc3c(=O)n(-c4cccc(C#N)c4)c(=O)c3cc2c1=O | > 100 | > 100 | > 100 | > 100 | – | – |
| c1ccc2[nH]c(CNc3ccc(C4C[Se]N=N4)cc3)nc2c1 (stereo not drawn) | > 100 | > 100 | > 100 | – | – | – |
| COc1ccccc1NC(=O)/C(=C/c1ccccc1)C(C)=O | > 100 | – | > 100 | – | 89.5 | – |

| Structure (SMILES) | TGI (DLD-1 colon) [µM] | TGI (DMS 273 small cell lung) [µM] | TGI (HOP-18 NSCLC) [µM] | TGI (RXF-631 renal) [µM] | TGI (XF 498 CNS) [µM] | other results |
| --- | --- | --- | --- | --- | --- | --- |
| Cc1cccc(N(CC(=O)O)S(=O)(=O)c2ccccc2)c1 | > 100 | > 100 | > 100 | > 100 | > 100 | – |
| N#C/C(=C1\SC(N=Nc2ccc(Cl)cc2)C(=O)N1c1ccccc1)c1nc2ccccc2[nH]1 (stereo not drawn) | > 100 | > 100 | – | – | 84.8 | – |
| O=C1[C@H]2ON(c3ccccc3)C(c3ccco3)[C@H]2C(=O)N1c1ccc(Cc2ccc(N3C(=O)[C@@H]4ON(c5ccccc5)C(c5ccco5)[C@@H]4C3=O)cc2)cc1 (stereo partly drawn) | > 100 | > 100 | > 100 | – | > 100 | – |
| CN(C)C(=S)Nc1nnc(Nc2ccccc2)s1 | > 100 | > 100 | > 100 | > 100 | – | – |
| N#Cc1c(-c2ccco2)cc(-c2ccccc2)[nH]c1=O | > 100 | > 100 | – | > 100 | – | – |
| Cc1nc(-c2cccnc2)sc1C(=O)/C=C/c1cccc([N+](=O)[O-])c1 | > 100 | > 100 | > 100 | > 100 | – | – |
| CC1=NN(C(=O)c2ccncc2)C(=O)C1N=Nc1ccc(F)cc1 (stereo not drawn) | > 100 | > 100 | – | – | > 100 | – |
| O=C1CNS(=O)(=O)N1 | > 100 | > 100 | – | – | > 100 | – |
| C=C1C2Oc3ccccc3C1N(c1ccccc1)O2 (stereo not drawn) | > 100 | – | – | 45.6 | 43.5 | – |
| CCCCCCCCCCCCCCCCCCOCC(COCCOCC[N+]1(CCCCCC(=O)[O-])CCCC1)Oc1ncccn1 (stereo not drawn) | 14 | 2.26 | 13.7 | – | 9.46 | TGI (MDA-MB-435): 25 µM; TGI (P388 leukemia): 1.02 µM; TGI (SN12K1 renal): 17.7 µM; TGI (P388/ADR leukemia): 15.9 µM; TGI (MDA-N): 23.2 µM; TGI (HS 578T breast): 28.8 µM; TGI (MCF7 breast): 16.1 µM |
| CC(C)(C)NCC(COc1ccc([N+](=O)[O-])cc1)OP(c1ccccc1)c1ccccc1 (stereo not drawn) | > 100 | > 100 | – | – | 67.3 | – |
| COc1ccc2[nH]c(-c3ccc(O)cc3)cc(=O)c2c1 | > 100 | 0.717 | > 29.9 | > 100 | 13.7 | TGI (MDA-N): > 100 µM; TGI (HS 578T breast): > 100 µM; TGI (MCF7 breast): > 100 µM |
| Nc1ccccc1C(=O)C(Br)C(Br)c1ccc2c(c1)OCO2 (stereo not drawn) | > 100 | 34 | 44.4 | – | 34 | – |
| COc1ccc(-c2c(C3=NCCCN3)nnn2-c2ccc([N+](=O)[O-])cc2)cc1 | > 100 | > 100 | > 100 | – | – | – |
| Cc1cccc(C)c1N1C(=O)C(=O)C(c2nc3ccccc3s2)C(=Nc2cccc3c(=O)[nH][nH]c(=O)c23)C1=O (stereo not drawn) | > 100 | > 100 | > 100 | – | – | – |
| C=CCNC(=O)N(CCC)CCCC(NC(C)=O)C(=O)NCc1ccccc1 (stereo not drawn) | – | > 100 | > 100 | > 100 | > 100 | – |
| O=c1[nH]c2cc([N+](=O)[O-])ccc2nc1/C(=N\Nc1ccccc1)C(O)c1ccc2c(c1)OCO2 (stereo not drawn) | > 100 | > 100 | – | > 100 | – | – |
